Source: PMC8536830 (Current Biology, 2021)
Values joined by “and” are separate entries in the source; they are usually repeats but may differ in a detail not shown here. Equal entries are not always repeated.

Key:
Assay type in all cases: cell-based, C. elegans
LGC-56 [1] = target: T1, LGC-56 (Caenorhabditis elegans, UniProt Q10052); assay: Two-electrode voltage clamp, antagonist inhibitory dose response in Xenopus oocytes expressing LGC-56; conditions: for IC50: Xenopus oocytes, TEVC, agonist constant at its EC50, Hill equation, three-parameter slope; for Block of LGC-56 currents by antagonist: agonist at EC50
Protocol: (§1) We also investigated the antagonist profiles of three potential antagonists: mecamylamine; spiperone; and picrotoxin. These antagonists target different binding sites and have different specificity for vertebrate receptors.
(§2) Defolliculated Xenopus laevis oocytes were obtained from EcoCyte Bioscience (Dortmund, Germany) and maintained in ND96 (in mM: 96 NaCl, 1 MgCl2, 5 HEPES, 1.8 CaCl2, 2 KCl) solution at 16°C for 3-5 days.
(§3) 5'-capped cRNA was synthesized in vitro using the T3 mMessage mMachine transcription kit according to manufacturer’s protocol (Thermo Fischer Scientific, CA, USA). RNA was then purified using the GeneJET RNA purification kit (Thermo Fischer Scientific, CA, USA) prior to cRNA injection. Defolliculated Xenopus oocytes were placed individually into 96 well plates and injected with 50nL of 500ng/μL RNA using the Roboinject system (Multi Channel Systems GmbH, Reutlingen, Germany). When two constructs were injected the total RNA concentration remained 500ng/μL, with a 1:1 ratio of the components. Injected oocytes were incubated at 16°C in ND96 until the day of recording, typically between 3-5 days post injection.
(§4) Two-electrode voltage clamp recordings were carried out using the Robocyte2 recording system or a manual TEVC set up, using an OC-725D amplifier (Multi Channel Systems, Reutlingen, Germany) and paired with a custom-made recording chamber and agar bridges from reference and bath electrodes. Glass electrodes were pulled on a P-1000 Micropipette Puller (Sutter, Ca, USA) with a resistance ranging from 0.7-2 MΩ, pipettes, containing AgCl wires, were backfilled with a 3 M KCl solution for manual recordings and 1.5M KCl and 1 M acetic acid for Robocyte2 recordings. Oocytes were clamped at −60mV unless stated otherwise. Continuous recordings were taken during application of agonists and antagonists at 500 Hz. Data was recorded using WinWCP or RoboCyte2 control software, manual data was filtered at 10 Hz.
(§5) Dose response curves were calculated from the peak current during a 10 s agonist stimulation in ND96 solution, with a 60 s ND96 wash in between doses. Data was gathered over at least two occasions, using different batches of oocytes. Normalized dose response data was fitted to a nonlinear curve using a four parameters variable slope and the EC50 and Hill slope was calculated. All further recordings were carried out with the agonist at its EC50 concentration unless stated otherwise. Ion selectivity was determined using a voltage ramp protocol of 20mV/s ranging from −80mV to +60mV in the presence or absence of the primary agonist in three different solutions: ND96, NMDG (Na^+ free) and Na Gluconate (low Cl^-) solutions. Normalized ramp curves were fitted to a linear regression line and the x intercept was compared between solutions to calculate an average Erev from 4-5 oocytes. Antagonist dose response curves were calculated from the peak current during a 10 s agonist + antagonist stimulation in ND96 solution, with the agonist concentration remaining constant. Repeated agonist stimulus protocols were carried out by measuring the peak current during a 10 s agonist stimulation at three wash intervals, 10 s, 30 s and 60 s. Kinetic measurements were calculated from a 60 s agonist perfusion. Python scripts for TEVC analysis can be found at on GitHub at hiris25/TEVC-analysis-scripts and on Zenodo https://doi.org/10.5281/zenodo.5095181.
(§6) Dose response and antagonist response curves were generated using custom-built python scripts (key resources table), which combined data from multiple recordings and normalized data by calculating I/Imax for each oocyte. Normalized mean, SD and n numbers where then imported into GraphPad where data was plotted and EC50 or IC50 values were calculated by fitting to the Hill equation using either three or four parameter slopes to obtain the highest degree of fit.

LGC-54 [2] = target: T2, LGC-54 (Caenorhabditis elegans, UniProt O17041); assay: Two-electrode voltage clamp, antagonist inhibitory dose response in Xenopus oocytes expressing LGC-54; conditions: for IC50: Xenopus oocytes, TEVC, agonist constant at its EC50, Hill equation, three-parameter slope; for Block of LGC-54 currents by antagonist: agonist at EC50
Protocol: as §1, §2, §3, §4, §5, §6

LGC-51/52 [3] = target: T3, LGC-51/52 (Caenorhabditis elegans, UniProt Q9NA62+X5LVB0); assay: Two-electrode voltage clamp, antagonist inhibitory dose response in Xenopus oocytes expressing LGC-51/52
Protocol: as §1, §2
5'-capped cRNA was synthesized in vitro using the T3 mMessage mMachine transcription kit according to manufacturer’s protocol (Thermo Fischer Scientific, CA, USA). […]
(§7) Two-electrode voltage clamp recordings were carried out using the Robocyte2 recording system or a manual TEVC set up, using an OC-725D amplifier (Multi Channel Systems, Reutlingen, Germany) and paired with a custom-made recording chamber and agar bridges from reference and bath electrodes. […] Data was recorded using WinWCP or RoboCyte2 control software, manual data was filtered at 10 Hz.
Dose response curves were calculated from the peak current during a 10 s agonist stimulation in ND96 solution, with a 60 s ND96 wash in between doses. […] Normalized dose response data was fitted to a nonlinear curve using a four parameters variable slope and the EC50 and Hill slope was calculated. […] Kinetic measurements were calculated from a 60 s agonist perfusion. […]

LGC-52 = LGC-52 (Caenorhabditis elegans, UniProt Q9NA62); assay: Two-electrode voltage clamp, agonist-evoked currents in Xenopus oocytes expressing LGC-52; conditions: for EC50: Xenopus oocytes, TEVC, current normalized to Imax, Hill equation with variable slope, read-out: EC50, agonist-evoked dose response, LGC-52; for Channel activation in ligand screen, LGC-52: ligands screened at 100 μM, oocytes clamped at −60 mV
Excerpt: (§8) We aimed to deorphanize C. elegans LGICs without known ligands, focusing on 5 genes in the putative monoamine-gated group: lgc-50; lgc-51; lgc-52; lgc-54; and lgc-56 (previously named ggr-3). Using heterologous overexpression in Xenopus oocytes and two-electrode voltage clamp recordings, we measured channel activity evoked by application of 11 monoamines and other neurotransmitters.
as §2, §3, §4
as §5, with “Python scripts for TEVC analysis can be found at on GitHub at hiris25/TEVC-analysis-scripts and on Zenodo https://doi.org/10.5281/zenodo.5095181.” left out

LGC-54 [4] = target: T2, LGC-54; assay: Two-electrode voltage clamp, agonist-evoked currents in Xenopus oocytes expressing LGC-54; conditions: for EC50: Xenopus oocytes, TEVC, current normalized to Imax, Hill equation with variable slope, read-out: EC50, agonist-evoked dose response, LGC-54; for Channel activation in ligand screen, LGC-54: ligands screened at 100 μM, oocytes clamped at −60 mV
Excerpt: as §8, §2, §3, §4, §5
Dose response and antagonist response curves were generated using custom-built python scripts (key resources table), which combined data from multiple recordings and normalized data by calculating I/Imax for each oocyte.

LGC-56 [5] = target: T1, LGC-56; assay: Two-electrode voltage clamp, agonist-evoked currents in Xenopus oocytes expressing LGC-56; conditions: for EC50: Xenopus oocytes, TEVC, current normalized to Imax, Hill equation with variable slope, read-out: EC50, agonist-evoked dose response, LGC-56; for Channel activation in ligand screen, LGC-56: ligands screened at 100 μM, oocytes clamped at −60 mV
Excerpt: as §8, §2, §3, §4
as §5, with “Python scripts for TEVC analysis can be found at on GitHub at hiris25/TEVC-analysis-scripts and on Zenodo https://doi.org/10.5281/zenodo.5095181.” left out

LGC-51/52 [6] = target: T3, LGC-51/52; assay: Two-electrode voltage clamp, agonist-evoked currents in Xenopus oocytes co-expressing LGC-51 and LGC-52; conditions: for Agonist-induced peak current of LGC-51/52 heteromer compared with LGC-52: 1 mM TYR or DA; for EC50: Xenopus oocytes co-expressing LGC-51 and LGC-52, TEVC, Hill equation with variable slope, read-out: EC50, agonist-evoked dose response, LGC-51/52 heteromer
Protocol: as §2, §3, §4
as §5, with “Normalized ramp curves were fitted to a linear regression line and the x intercept was compared between solutions to calculate an average Erev from 4-5 oocytes.” left out, “Repeated agonist stimulus protocols were carried out by measuring the peak current during a 10 s agonist stimulation at three wash intervals, 10 s, 30 s and 60 s.” left out, “Python scripts for TEVC analysis can be found at on GitHub at hiris25/TEVC-analysis-scripts and on Zenodo https://doi.org/10.5281/zenodo.5095181.” left out

LGC-50 = target: T4, LGC-50 (Caenorhabditis elegans, UniProt P41849); assay: Two-electrode voltage clamp, agonist-evoked currents in Xenopus oocytes expressing LGC-50; conditions: ligands screened at 100 μM, oocytes clamped at −60 mV
T4 construct: lgc-50 ORF F […]; expressed in transfected cells; host or cells: Xenopus laevis oocytes injected with cRNA (plasmid pJML002, KSM: lgc-50 cDNA)
T4 sequence (P41849 20-491): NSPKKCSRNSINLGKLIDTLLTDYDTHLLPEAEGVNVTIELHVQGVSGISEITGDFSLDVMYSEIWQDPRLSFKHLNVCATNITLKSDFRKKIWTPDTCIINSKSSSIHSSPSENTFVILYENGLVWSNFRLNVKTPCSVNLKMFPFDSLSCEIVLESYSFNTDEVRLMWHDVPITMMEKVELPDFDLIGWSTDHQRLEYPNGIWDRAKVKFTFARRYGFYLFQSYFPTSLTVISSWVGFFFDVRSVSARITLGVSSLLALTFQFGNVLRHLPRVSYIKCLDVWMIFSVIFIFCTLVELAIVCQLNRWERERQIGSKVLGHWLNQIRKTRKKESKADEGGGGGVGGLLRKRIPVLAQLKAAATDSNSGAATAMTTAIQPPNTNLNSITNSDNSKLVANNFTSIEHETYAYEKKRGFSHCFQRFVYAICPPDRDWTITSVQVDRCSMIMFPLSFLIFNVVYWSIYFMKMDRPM
Excerpt: as §8, §2
5'-capped cRNA was synthesized in vitro using the T3 mMessage mMachine transcription kit according to manufacturer’s protocol (Thermo Fischer Scientific, CA, USA). RNA was then purified using the GeneJET RNA purification kit (Thermo Fischer Scientific, CA, USA) prior to cRNA injection. […]
as §7
Dose response curves were calculated from the peak current during a 10 s agonist stimulation in ND96 solution, with a 60 s ND96 wash in between doses. […] Normalized dose response data was fitted to a nonlinear curve using a four parameters variable slope and the EC50 and Hill slope was calculated. […] Ion selectivity was determined using a voltage ramp protocol of 20mV/s ranging from −80mV to +60mV in the presence or absence of the primary agonist in three different solutions: ND96, NMDG (Na^+ free) and Na Gluconate (low Cl^-) solutions. […] Antagonist dose response curves were calculated from the peak current during a 10 s agonist + antagonist stimulation in ND96 solution, with the agonist concentration remaining constant. […] Kinetic measurements were calculated from a 60 s agonist perfusion. […]

T1 sequence (Q10052 entry or part of it): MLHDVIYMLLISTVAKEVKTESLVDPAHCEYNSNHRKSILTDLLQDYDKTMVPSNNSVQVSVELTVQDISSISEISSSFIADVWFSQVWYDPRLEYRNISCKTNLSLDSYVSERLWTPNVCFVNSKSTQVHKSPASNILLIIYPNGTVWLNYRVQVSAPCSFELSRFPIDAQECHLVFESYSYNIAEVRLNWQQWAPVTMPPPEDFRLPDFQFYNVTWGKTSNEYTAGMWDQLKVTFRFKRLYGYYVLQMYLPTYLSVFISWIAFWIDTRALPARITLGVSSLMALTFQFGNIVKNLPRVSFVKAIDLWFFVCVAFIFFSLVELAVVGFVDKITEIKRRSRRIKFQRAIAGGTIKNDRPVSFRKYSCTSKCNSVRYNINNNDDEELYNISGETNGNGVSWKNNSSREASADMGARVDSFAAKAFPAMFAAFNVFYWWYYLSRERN
T2 sequence (O17041 entry or part of it): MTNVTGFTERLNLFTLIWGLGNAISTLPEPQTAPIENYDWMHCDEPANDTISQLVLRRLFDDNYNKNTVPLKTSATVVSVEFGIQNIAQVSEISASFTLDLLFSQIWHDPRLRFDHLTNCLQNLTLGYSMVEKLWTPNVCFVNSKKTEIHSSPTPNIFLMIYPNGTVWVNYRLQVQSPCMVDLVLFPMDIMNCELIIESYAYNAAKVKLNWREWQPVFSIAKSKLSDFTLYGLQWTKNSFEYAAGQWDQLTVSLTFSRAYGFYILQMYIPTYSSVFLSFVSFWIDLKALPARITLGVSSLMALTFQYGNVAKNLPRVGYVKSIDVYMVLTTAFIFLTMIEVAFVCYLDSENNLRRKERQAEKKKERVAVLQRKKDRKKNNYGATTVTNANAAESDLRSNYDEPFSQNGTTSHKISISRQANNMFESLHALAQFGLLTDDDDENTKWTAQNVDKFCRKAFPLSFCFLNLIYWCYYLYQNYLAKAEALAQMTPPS
LGC-52, sequence (Q9NA62 entry or part of it): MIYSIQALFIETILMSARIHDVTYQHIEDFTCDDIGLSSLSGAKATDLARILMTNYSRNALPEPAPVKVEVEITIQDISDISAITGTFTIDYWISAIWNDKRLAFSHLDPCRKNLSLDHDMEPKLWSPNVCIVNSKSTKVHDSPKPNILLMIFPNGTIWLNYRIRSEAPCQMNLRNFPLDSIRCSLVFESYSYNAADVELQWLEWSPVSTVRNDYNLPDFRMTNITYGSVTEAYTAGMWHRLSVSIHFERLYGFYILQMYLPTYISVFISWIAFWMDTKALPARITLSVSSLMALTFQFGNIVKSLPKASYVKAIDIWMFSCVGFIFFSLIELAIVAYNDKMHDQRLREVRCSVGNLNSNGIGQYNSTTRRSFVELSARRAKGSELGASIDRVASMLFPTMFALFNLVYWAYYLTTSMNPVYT
T3 sequence (X5LVB0 entry or part of it): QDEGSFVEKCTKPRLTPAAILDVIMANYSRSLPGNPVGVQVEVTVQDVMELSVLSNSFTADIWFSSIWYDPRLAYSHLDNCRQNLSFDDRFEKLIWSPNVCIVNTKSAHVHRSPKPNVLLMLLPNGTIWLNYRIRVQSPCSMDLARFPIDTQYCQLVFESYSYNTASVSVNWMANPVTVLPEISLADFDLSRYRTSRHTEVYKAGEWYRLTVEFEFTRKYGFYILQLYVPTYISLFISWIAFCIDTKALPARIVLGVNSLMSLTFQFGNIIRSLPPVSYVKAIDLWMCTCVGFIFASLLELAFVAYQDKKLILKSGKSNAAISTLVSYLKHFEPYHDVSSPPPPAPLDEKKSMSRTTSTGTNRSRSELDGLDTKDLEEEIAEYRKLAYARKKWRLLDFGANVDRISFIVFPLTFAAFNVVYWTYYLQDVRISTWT
T3 sequence (Q9NA62 entry or part of it): as the sequence (Q9NA62 entry or part of it) above

## O=C(CCCN1CCC2(CC1)C(=O)NCN2c1ccccc1)c1ccc(F)cc1 [Spiperone, spiperone]
LGC-56 [1]
  IC50: 127 µM
  Block of LGC-56 currents by antagonist: partial block
LGC-54 [2]
  IC50: 81 µM
  Block of LGC-54 currents by antagonist: partial block
LGC-51/52 [3]; Xenopus oocytes, TEVC, agonist constant at its EC50, Hill equation, three-parameter slope
  IC50: 170 µM
LGC-51/52 [3]; agonist at EC50
  Block of LGC-51/52 currents by antagonist: partial block

## NCCc1ccc(O)c(O)c1 [dopamine]
LGC-52
  EC50: 0.51 µM
  Channel activation in ligand screen, LGC-52: activated
LGC-52; ratio of EC50 values
  EC50 lower for dopamine than tyramine, LGC-52: 100 fold
LGC-54 [4]
  EC50: 18 µM
  Channel activation in ligand screen, LGC-54: activated
LGC-56 [5]
  EC50: 642 µM
  Channel activation in ligand screen, LGC-56: activated
LGC-51/52 [6]
  Agonist-induced peak current of LGC-51/52 heteromer compared with LGC-52: no significant effect
  EC50: 0.81 µM

## CNC1(C)C2CCC(C2)C1(C)C (stereo not drawn) [mecamylamine]
LGC-56 [1]
  IC50: 1 µM
  Block of LGC-56 currents by antagonist: partially blocked
LGC-54 [2]
  IC50: 114 µM and > 100 µM
  Block of LGC-54 currents by antagonist: only a partial block

## NCC(O)c1ccc(O)cc1 (stereo not drawn) [octopamine]
LGC-56 [5]; 1 mM
  Response of LGC-56 at very high concentration: small response

## NCCc1c[nH]c2ccccc12 [tryptamine]
LGC-50
  Channel gating in ligand screen, LGC-50: gated

## NCCc1ccc(O)cc1 [tyramine]
LGC-52
  EC50: 54 µM
  Channel activation in ligand screen, LGC-52: activated
LGC-54 [4]
  EC50: 13 µM
  Channel activation in ligand screen, LGC-54: activated
LGC-56 [5]
  EC50: 70 µM
  Channel activation in ligand screen, LGC-56: activated
LGC-51/52 [6]
  Agonist-induced peak current of LGC-51/52 heteromer compared with LGC-52: significantly higher
  EC50: 4 µM

## picrotoxin
LGC-56 [1]
  IC50: 59 µM
  Block of LGC-56 currents by antagonist: large inhibition of currents
LGC-54 [2]
  IC50: 43 µM
  Block of LGC-54 currents by antagonist: large inhibition of currents
